Experimental data as given in PubChem BioAssay AID330 (DTP/NCI, 2004).
Where “and” joins values, the source holds several entries; their conditions need not be identical. Equal entries are not always repeated. Toxic doses and inconclusive results are not listed.

Tested on: P388 leukemia ip, CD2F1 mice, survival T/C
Experiment: NCI In Vivo Anticancer Drug Screen. Data for tumor model P388 Leukemia (intraperitoneal) in CD2F1 (CDF1) mice
Conditions: endpoint: median survival time, higher = longer survival
Summary of the method: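 Mice carrying the transplanted tumor received test compound or vehicle. Survival was recorded in each group, and the value is the treated-group measurement divided by that of the vehicle-treated control group.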

[1] = dose: 50.0 mg/kg/injection, schedule: Q01DX009 (ip), vehicle: saline
[2] = dose: 100.0 mg/kg/injection, schedule: Q04DX003 (ip), vehicle: saline with Tween-80
[3] = dose: 200.0 mg/kg/injection, schedule: Q01DX009 (ip), vehicle: saline
[4] = dose: 200.0 mg/kg/injection, schedule: Q04DX003 (ip), vehicle: saline with Tween-80
[5] = dose: 50.0 mg/kg/injection, schedule: Q01DX009 (ip), vehicle: saline with Tween-80
[6] = dose: 100.0 mg/kg/injection, schedule: Q01DX009 (ip), vehicle: saline with Tween-80
[7] = dose: 50.0 mg/kg/injection, schedule: Q04DX003 (ip), vehicle: saline with Tween-80
[8] = dose: 60.0 mg/kg/injection, schedule: Q01DX005 (ip), vehicle: saline with Tween-80
[9] = dose: 120.0 mg/kg/injection, schedule: Q01DX005 (ip), vehicle: saline with Tween-80
[10] = dose: 240.0 mg/kg/injection, schedule: Q01DX005 (ip), vehicle: saline with Tween-80
[11] = dose: 25.0 mg/kg/injection, schedule: Q04DX003 (ip), vehicle: saline with Tween-80
[12] = dose: 50.0 mg/kg/injection, schedule: Q01DX005 (ip), vehicle: saline with Tween-80
[13] = dose: 100.0 mg/kg/injection, schedule: Q01DX005 (ip), vehicle: saline with Tween-80
[14] = dose: 200.0 mg/kg/injection, schedule: Q01DX005 (ip), vehicle: saline with Tween-80
[15] = dose: 100.0 mg/kg/injection, schedule: Q01DX001 (ip), vehicle: saline with Tween-80
[16] = dose: 200.0 mg/kg/injection, schedule: Q01DX001 (ip), vehicle: saline with Tween-80
[17] = dose: 50.0 mg/kg/injection, schedule: Q01DX005 (ip), vehicle: Klucel (hydroxypropylcellulose) (HPC)
[18] = dose: 100.0 mg/kg/injection, schedule: Q01DX005 (ip), vehicle: Klucel (hydroxypropylcellulose) (HPC)
[19] = dose: 200.0 mg/kg/injection, schedule: Q01DX005 (ip), vehicle: Klucel (hydroxypropylcellulose) (HPC)

CC(=O)O[C@H]1C(=O)[C@]2(C)[C@@H](OC(C)=O)CC3OC[C@@]3(OC(C)=O)[C@H]2[C@H](OC(=O)c2ccccc2)[C@]2(O)C[C@H](OC(=O)[C@H](OC(C)=O)[C@@H](NC(=O)c3ccccc3)c3ccccc3)C(C)=C1C2(C)C (stereo not given in full)
T/C (dose: 2.5 mg/kg/injection, schedule: Q01DX005 (ip), vehicle: DMSO): 100 % of control | T/C (dose: 5.0 mg/kg/injection, schedule: Q01DX005 (ip), vehicle: DMSO): 102 % of control and 118 % of control | T/C (dose: 10.0 mg/kg/injection, schedule: Q01DX005 (ip), vehicle: DMSO): 102 % of control and 124 % of control | T/C (dose: 12.5 mg/kg/injection, schedule: Q01DX005 (ip), vehicle: DMSO): 107 % of control | T/C (dose: 20.0 mg/kg/injection, schedule: Q01DX005 (ip), vehicle: DMSO): 121 % of control | T/C (dose: 25.0 mg/kg/injection, schedule: Q01DX005 (ip), vehicle: DMSO): 120 % of control | T/C (dose: 40.0 mg/kg/injection, schedule: Q01DX005 (ip), vehicle: DMSO): 178 % of control | T/C (dose: 50.0 mg/kg/injection, schedule: Q01DX005 (ip), vehicle: DMSO): 124 % of control | T/C (dose: 100.0 mg/kg/injection, schedule: Q01DX005 (ip), vehicle: DMSO): 120 % of control

CCc1c2cc(OC)c(OC)cc2cc2c3cc(OC)c(OC)cc3cc[n+]12 (tested in a mixture with another compound)
T/C (dose: 8.8 mg/kg/injection, schedule: Q04DX003 (ip), vehicle: saline): 108 % of control | T/C (dose: 20.0 mg/kg/injection, schedule: Q04DX003 (ip), vehicle: saline): 122 % of control | T/C (dose: 25.0 mg/kg/injection, schedule: Q01DX009 (ip), vehicle: saline): 151 % of control | T/C (dose: 29.3 mg/kg/injection, schedule: Q01DX009 (ip), vehicle: saline with Tween-80): 153 % of control | T/C (dose: 37.5 mg/kg/injection, schedule: Q01DX009 (ip), vehicle: saline with Tween-80): 167 % of control | T/C (dose: 44.0 mg/kg/injection, schedule: Q01DX009 (ip), vehicle: saline with Tween-80): 170 % of control | T/C [1]: 178 % of control | T/C (dose: 66.0 mg/kg/injection, schedule: Q01DX009 (ip), vehicle: saline with Tween-80): 201 % of control | T/C (dose: 75.0 mg/kg/injection, schedule: Q01DX009 (ip), vehicle: saline with Tween-80): 208 % of control | T/C (dose: 88.0 mg/kg/injection, schedule: Q04DX003 (ip), vehicle: saline): 150 % of control | T/C [2]: 154 % of control | T/C (dose: 150.0 mg/kg/injection, schedule: Q01DX009 (ip), vehicle: saline with Tween-80): 234 % of control | T/C (dose: 150.0 mg/kg/injection, schedule: Q01DX009 (ip), vehicle: saline): 244 % of control and 92 % of control | T/C [3]: 171 % of control | T/C [4]: 181 % of control | T/C (dose: 200.0 mg/kg/injection, schedule: Q04DX003 (ip), vehicle: saline): 150 % of control and 191 % of control | T/C (dose: 225.0 mg/kg/injection, schedule: Q01DX009 (ip), vehicle: saline): 218 % of control | T/C (dose: 300.0 mg/kg/injection, schedule: Q04DX003 (ip), vehicle: saline): 195 % of control | T/C (dose: 400.0 mg/kg/injection, schedule: Q04DX003 (ip), vehicle: saline with Tween-80): 90 % of control | T/C (dose: 400.0 mg/kg/injection, schedule: Q04DX003 (ip), vehicle: saline): 104 % of control

CC1CNC(=O)NC1=O (stereo not given)
T/C [5]: 94 % of control | T/C [6]: 86 % of control

O=C(Nc1ccc(NC(=O)Nc2ccc(C3=NCCN3)cc2)cc1)Nc1ccc(C2=NCCN2)cc1
T/C (dose: 110.0 mg/kg/injection, schedule: Q01DX010 (ip), vehicle: saline): 118 % of control | T/C (dose: 165.0 mg/kg/injection, schedule: Q01DX010 (ip), vehicle: saline): 118 % of control

Oc1ccc(N=Cc2ccc(OCc3ccccc3)cc2)cc1
T/C [5]: 97 % of control | T/C [6]: 93 % of control | T/C (dose: 200.0 mg/kg/injection, schedule: Q01DX009 (ip), vehicle: saline with Tween-80): 93 % of control

CCCCNC1=CC(=O)c2ccccc2C1=O
T/C [7]: 99 % of control | T/C [2]: 92 % of control | T/C [4]: 88 % of control

NC(=O)c1sc(N2CCCC2)nc1N
T/C [8]: 112 % of control | T/C [9]: 105 % of control | T/C [10]: 118 % of control

CCCCCC(Cn1ccnc1)c1ccccc1Br (stereo not given)
T/C [11]: 106 % of control | T/C (dose: 33.0 mg/kg/injection, schedule: Q04DX003 (ip), vehicle: saline with Tween-80): 107 % of control | T/C [7]: 100 % of control and 108 % of control and 122 % of control | T/C (dose: 75.0 mg/kg/injection, schedule: Q04DX003 (ip), vehicle: saline with Tween-80): 92 % of control | T/C [2]: 106 % of control and 111 % of control and 90 % of control

CCOC(=O)NP1(=O)NCc2ccccc2CN1
T/C [12]: 103 % of control | T/C [13]: 99 % of control | T/C [14]: 90 % of control

ClCc1nnc2n1-c1ccc(Cl)cc1SC2
T/C [8]: 106 % of control | T/C [9]: 107 % of control

C(=N\Nc1nnc2c3cccnc3c3ccccc3c2n1)/c1ccc2c(c1)OCO2
T/C [15]: 108 % of control | T/C [16]: 104 % of control

CCn1c2ccccc2c2cc(NC(=O)Nc3ccc4c(c3)c3ccccc3n4CC)ccc21
T/C [12]: 90 % of control | T/C [13]: 97 % of control | T/C [14]: 109 % of control

CN(C)C1=NC1(C)C
T/C [1]: 100 % of control | T/C (dose: 100.0 mg/kg/injection, schedule: Q01DX009 (ip), vehicle: saline): 102 % of control | T/C [3]: 91 % of control

CCn1c2ccc(N(C)C)cc2c2cc(N(C)C)ccc21
T/C [8]: 99 % of control | T/C [9]: 105 % of control | T/C [10]: 102 % of control

CC(=O)OCc1cocc1COC(C)=O
T/C [17]: 100 % of control and 103 % of control | T/C [18]: 107 % of control and 98 % of control | T/C [19]: 117 % of control and 94 % of control

CC1(C)CC(Nc2ccccc2)=CC(=S)N1
T/C [17]: 100 % of control | T/C [18]: 103 % of control | T/C [19]: 100 % of control

CC(CN(C)C)Nc1c2ccccc2nc2cccc([N+](=O)[O-])c12 (stereo not given)
T/C (dose: 0.04 mg/kg/injection, schedule: Q01DX009 (ip), vehicle: saline): 87 % of control | T/C (dose: 0.09 mg/kg/injection, schedule: Q01DX009 (ip), vehicle: saline): 101 % of control | T/C (dose: 0.19 mg/kg/injection, schedule: Q01DX009 (ip), vehicle: saline): 102 % of control and 113 % of control | T/C (dose: 0.39 mg/kg/injection, schedule: Q01DX009 (ip), vehicle: saline): 109 % of control

O=C(O)C1CC2c3ccccc3C1([N+](=O)[O-])c1ccccc12 (stereo not given)
T/C [8]: 101 % of control | T/C [9]: 104 % of control | T/C [10]: 109 % of control

O=C(O)c1c(-c2ccccc2)sc2ccccc2c1=O
T/C [15]: 99 % of control | T/C [16]: 99 % of control | T/C (dose: 400.0 mg/kg/injection, schedule: Q01DX001 (ip), vehicle: saline with Tween-80): 99 % of control

CCNC(=O)Nc1nc2ccccc2[nH]1
T/C (dose: 12.5 mg/kg/injection, schedule: Q01DX009 (ip), vehicle: saline with Tween-80): 103 % of control | T/C (dose: 25.0 mg/kg/injection, schedule: Q01DX009 (ip), vehicle: saline with Tween-80): 100 % of control | T/C [5]: 107 % of control

Cc1cc[n+](C2=C(Nc3c(C)cccc3C)C(=O)c3ccccc3C2=O)cc1
T/C [8]: 102 % of control | T/C [9]: 102 % of control | T/C [10]: 114 % of control

C=CCOc1cc2c(cc1C(C)c1ccccc1OC)OCO2 (stereo not given)
T/C [12]: 99 % of control | T/C [13]: 97 % of control | T/C [14]: 104 % of control

Cc1cc(N(CCCl)CCCl)c(C)cc1NC(=O)c1ccccc1
T/C (dose: 16.5 mg/kg/injection, schedule: Q04DX003 (ip), vehicle: saline with Tween-80): 159 % of control | T/C [11]: 177 % of control | T/C (dose: 37.5 mg/kg/injection, schedule: Q04DX003 (ip), vehicle: saline with Tween-80): 90 % of control | T/C [7]: 90 % of control

COC1=CC(c2ccccc2)=N/C1=C/c1ccc[nH]1
T/C (dose: 50.0 mg/kg/injection, schedule: Q01DX001 (ip), vehicle: Klucel (hydroxypropylcellulose) (HPC)): 95 % of control | T/C (dose: 100.0 mg/kg/injection, schedule: Q01DX001 (ip), vehicle: Klucel (hydroxypropylcellulose) (HPC)): 100 % of control | T/C (dose: 200.0 mg/kg/injection, schedule: Q01DX001 (ip), vehicle: Klucel (hydroxypropylcellulose) (HPC)): 98 % of control
